{"source": "paper PMC8433052", "about": "(iScience, 2021)", "key": {"HCoV-OC43 [1]": {"system": "HCoV-OC43", "assay": "Immunofluorescence assay of viral nucleoprotein, HCoV-OC43 in A549/TMPRSS2 cells", "assay_type": "cell-based, Human coronavirus OC43", "settings": "HCoV-OC43 MOI 1, 48 hpi"}, "JEV": {"system": "JEV", "assay": "CPE-based antiviral assay (MTT), JEV in BHK-21", "assay_type": "cell-based", "settings": "Japanese encephalitis virus, BHK-21, 72 h, read-out: EC50 against JEV"}, "SARS-CoV-2 [2]": {"system": "SARS-CoV-2", "assay_type": "cell-based"}, "SARS-CoV-2 [3]": {"system": "SARS-CoV-2", "assay": "qRT-PCR analysis of SARS-CoV-2 in Caco-2 cells (rescreening, supernatant viral RNA)", "assay_type": "cell-based", "settings": "Severe acute respiratory syndrome coronavirus 2; qRT-PCR analysis using Caco-2 cells, MOI 0.1, 48 h"}, "DENV2": {"system": "DENV2", "assay": "CPE-based antiviral assay (resazurin), DENV2 in BHK-21", "assay_type": "cell-based, Dengue virus 2", "settings": "Dengue virus, DENV2, BHK-21, 96 h, read-out: EC50 against DENV2"}, "SARS-CoV [4]": {"system": "SARS-CoV", "assay_type": "cell-based", "settings": "MRC5/ACE2 cells, 1 μM, 48 hpi"}, "[5]": {"assay": "Cytotoxicity against A549/TMPRSS2 cells", "assay_type": "cell-based", "settings": "human", "experimental": "(§1) The MTT (3-[4,5-dimethyl-2-thiazolyl]-2,5-diphenyl-2H-tetrazolium bromide) and resazurin reduction assays were carried out as previously described ([Nobori et al., 2018]; [Sanaki et al., 2019]). These were performed to calculate cell viability following viral induced CPE or cytotoxicity. Assay conditions for flaviviruses are as described in Table 2."}, "BHK-21 cells": {"system": "BHK-21 cells", "assay": "Cytotoxicity assay in BHK-21 cells", "assay_type": "cell-based, Hamster", "settings": "concentrations up to 20 μM"}, "[6]": {"assay": "Cytotoxicity assay in BHK-21 cells", "assay_type": "cell-based, Hamster", "settings": "hamster"}, "YFV": {"system": "YFV", "assay": "microbe, parasite or virus in culture", "assay_type": "cell-based", "settings": "Yellow fever virus, BHK-21, 72 h, read-out: EC50 against YFV"}, "[7]": {"assay": "Cytotoxicity against Huh7 cells", "assay_type": "cell-based", "settings": "human", "experimental": "as §1"}, "SARS-CoV [8]": {"system": "SARS-CoV", "assay_type": "cell-based", "settings": "Caco-2 cells, MOI 0.1, 48 hpi"}, "HCoV-229E [9]": {"system": "HCoV-229E", "assay": "Resazurin reduction assay, HCoV-229E-infected MRC5 cells", "settings": "for EC50: Human coronavirus 229E"}, "HCoV-OC43 [10]": {"system": "HCoV-OC43", "assay": "qRT-PCR of viral RNA, HCoV-OC43-infected Huh7 cells", "assay_type": "cell-based, Human coronavirus OC43", "settings": "MOI 0.1, 48 hpi, serially diluted compound"}, "DENV4": {"system": "DENV4", "assay": "CPE-based antiviral assay (resazurin), DENV4 in BHK-21", "assay_type": "cell-based, Dengue virus 4", "settings": "Dengue virus, DENV4, BHK-21, 120 h, read-out: EC50 against DENV4"}, "ZIKV": {"system": "ZIKV", "assay": "CPE-based antiviral assay (MTT), ZIKV in BHK-21", "assay_type": "cell-based", "settings": "Zika virus, BHK-21, 72 h, read-out: EC50 against ZIKV"}, "[11]": {"assay": "Cytotoxicity against Caco-2 cells", "assay_type": "cell-based", "settings": "human", "experimental": "as §1"}, "SARS-CoV-2 [12]": {"system": "SARS-CoV-2", "assay": "Time-of-addition assay, SARS-CoV-2 in Caco-2 cells", "assay_type": "cell-based", "settings": "1 μM added at 3 hpi, read at 24 hpi", "experimental": "The time-of-addition assay was performed according to previous reports ([Ohashi et al., 2021]; [Wang et al., 2020]). Briefly, Caco-2 cells were seeded on the day before SARS-CoV-2 infection (MOI of 0.1) and compound treatment. One micromolar HMTU or DMSO was then added at the indicated time points (Whole, Entry, and Post-entry). For “Whole” treatment, the cells were incubated with both the compound and virus for 1 h. After incubation, unbound viruses were removed, and the cells were cultured with HMTU-containing medium for 2 h to allow viral entry. At 3 hpi, culture supernatants were replaced with new HMTU-containing media and maintained until the end of the experiment. For “Entry” treatment, the cells were incubated as described above, and at 3 hpi, HMTU-containing media were replaced with fresh culture media and maintained until the end of the experiments. For “Post-entry” treatment, HMTU was added to the virus-infected cells at 3 hpi and maintained until the end of the experiment. At 24 hpi, total RNA was isolated, and viral RNA was quantified using qRT–PCR analysis as described above. Supernatants were collected, after which serial dilutions of these supernatants were used to inoculate a monolayer of the VeroE6/TMPRSS2 cells. Three days after inoculation, the CPE was scored, and TCID50/mL was calculated to measure viral titers."}, "[13]": {"assay": "Cytotoxicity against VeroE6/TMPRSS2 cells", "assay_type": "cell-based", "settings": "African green monkey", "experimental": "as §1"}, "HCoV-OC43 [14]": {"system": "HCoV-OC43", "assay": "Resazurin reduction assay, HCoV-OC43-infected MRC5 cells"}, "SARS-CoV-2 [15]": {"system": "SARS-CoV-2", "assay": "qRT-PCR of viral RNA, SARS-CoV-2-infected Caco-2 cells", "assay_type": "cell-based", "settings": "MOI 0.1, 48 hpi"}, "HCoV-OC43 [16]": {"system": "HCoV-OC43", "assay_type": "cell-based, Human coronavirus OC43"}, "SARS-CoV-2 [17]": {"system": "SARS-CoV-2", "assay": "Immunofluorescence assay of viral spike protein, SARS-CoV-2 in MRC5/ACE2 cells", "assay_type": "cell-based"}, "SARS-CoV [18]": {"system": "SARS-CoV", "assay_type": "cell-based", "settings": "supernatants of SARS-CoV-infected Caco-2 cells, 0.5 μM, 48 hpi"}, "DENV1": {"system": "DENV1", "assay": "CPE-based antiviral assay (resazurin), DENV1 in BHK-21", "assay_type": "cell-based, Dengue virus 1", "settings": "Dengue virus, DENV1, BHK-21, 120 h, read-out: EC50 against DENV1"}, "WNV": {"system": "WNV", "assay": "CPE-based antiviral assay (MTT), WNV in BHK-21", "assay_type": "cell-based", "settings": "West Nile virus, BHK-21, 72 h, read-out: EC50 against WNV"}, "DENV3": {"system": "DENV3", "assay": "CPE-based antiviral assay (resazurin), DENV3 in BHK-21", "assay_type": "cell-based, Dengue virus 3", "settings": "Dengue virus, DENV3, BHK-21, 120 h, read-out: EC50 against DENV3"}, "HCoV-229E [19]": {"system": "HCoV-229E", "assay": "qRT-PCR of viral RNA, HCoV-229E-infected Huh7 cells", "assay_type": "cell-based, Human coronavirus 229E", "settings": "MOI 0.05, 48 hpi, serially diluted compound"}, "MRC5 cells": {"system": "MRC5 cells", "assay": "Cytotoxicity against MRC5 cells", "assay_type": "cell-based, Human", "settings": "mean from three independent experiments (Table 4), read-out: CC50 MRC5, mean", "experimental": "as §1"}, "[20]": {"assay": "Cytotoxicity against MRC5 cells", "assay_type": "cell-based, Human", "settings": "human, rescreening (Table 3), read-out: CC50", "experimental": "as §1"}, "[21]": {"settings": "MRC5 cells, resazurin reduction assay"}}, "note": "Where two headings read alike, the source gives them in different places."}
{"smiles": "Nc1ncnc2c1c(CO)cn2[C@@H]1O[C@H](CO)[C@@H](O)[C@H]1O", "note": "[HUP1108, 5-hydroxymethyltubercidin]", "values": [{"measurement": "positive signals of viral nucleoprotein (IFA)", "setting": "HCoV-OC43 [1]", "value": "decreased in a dose-dependent fashion"}, {"measurement": "EC50", "setting": "JEV", "value": 500, "unit": "nM"}, {"measurement": "reduction of progeny virus titer", "setting": "SARS-CoV-2 [2]", "value": "more than 1 log TCID50/mL"}, {"measurement": "EC90", "setting": "SARS-CoV-2 [3]", "value": 570, "unit": "nM"}, {"measurement": "EC50", "setting": "DENV2", "value": 240, "unit": "nM"}, {"measurement": "viral spike protein expression (IFA)", "setting": "SARS-CoV [4]", "value": "significantly inhibited"}, {"measurement": "CC50", "setting": "[5]", "value": "> 20000", "unit": "nM"}, {"measurement": "cytotoxicity (in words)", "setting": "BHK-21 cells", "value": "did not exhibit cytotoxicity"}, {"measurement": "CC50", "setting": "[6]", "value": "> 20000", "unit": "nM"}, {"measurement": "EC50", "setting": "YFV", "value": 270, "unit": "nM"}, {"measurement": "CC50", "setting": "[7]", "value": "> 20000", "unit": "nM"}, {"measurement": "SARS-CoV RNA replication, subgenomic (nucleocapsid) and genomic (RdRp) transcripts", "setting": "SARS-CoV [8]", "value": "inhibited in a dose-dependent manner"}, {"measurement": "EC50", "setting": "HCoV-229E [9]; MRC5, read-out: HCoV-229E EC50", "value": 430, "unit": "nM"}, {"measurement": "EC50", "setting": "HCoV-229E [9]; MRC5, read-out: HCoV-229E EC50, mean", "value": 528, "unit": "nM"}, {"measurement": "selectivity index (SI = CC50/EC50) for HCoV-229E", "setting": "HCoV-229E [9]; MRC5 cells", "value": "> 94"}, {"measurement": "anti-HCoV-229E activity (in words)", "setting": "HCoV-229E [9]; [21]", "value": "strong antiviral activities"}, {"measurement": "HCoV-OC43 replication, subgenomic (nucleocapsid) and genomic (ORF1b) RNA transcripts", "setting": "HCoV-OC43 [10]", "value": "dose-dependent inhibition"}, {"measurement": "EC50", "setting": "DENV4", "value": 520, "unit": "nM"}, {"measurement": "EC50", "setting": "ZIKV", "value": 1300, "unit": "nM"}, {"measurement": "CC50", "setting": "[11]", "value": "> 20000", "unit": "nM"}, {"measurement": "intracellular and extracellular viral RNAs, post-entry step", "setting": "SARS-CoV-2 [12]", "value": "significantly reduced"}, {"measurement": "CC50", "setting": "[13]", "value": "> 20000", "unit": "nM"}, {"measurement": "EC50", "setting": "HCoV-OC43 [14]; Betacoronavirus 1, OC43, MRC5, read-out: HCoV-OC43 EC50", "value": 350, "unit": "nM"}, {"measurement": "EC50", "setting": "HCoV-OC43 [14]; Betacoronavirus 1, OC43, MRC5, read-out: HCoV-OC43 EC50, mean", "value": 378, "unit": "nM"}, {"measurement": "selectivity index (SI = CC50/EC50) for HCoV-OC43", "setting": "HCoV-OC43 [14]; MRC5 cells", "value": "> 132"}, {"measurement": "anti-HCoV-OC43 activity (in words)", "setting": "HCoV-OC43 [14]; [21]", "value": "strong antiviral activities"}, {"measurement": "SARS-CoV-2 RNA replication, subgenomic (nucleocapsid) and genomic (RdRp) transcripts", "setting": "SARS-CoV-2 [15]", "value": "inhibited in a dose-dependent manner"}, {"measurement": "reduction in progeny virus titer", "setting": "HCoV-OC43 [16]", "value": "> 1", "unit": "log"}, {"measurement": "viral spike protein expression (IFA)", "setting": "SARS-CoV-2 [17]", "value": "significantly inhibited"}, {"measurement": "reduction of progeny virus titer", "setting": "SARS-CoV [18]", "value": "more than 1 log TCID50/mL"}, {"measurement": "EC50", "setting": "DENV1", "value": 350, "unit": "nM"}, {"measurement": "EC50", "setting": "WNV", "value": 950, "unit": "nM"}, {"measurement": "EC50", "setting": "DENV3", "value": 420, "unit": "nM"}, {"measurement": "HCoV-229E replication, subgenomic (nucleocapsid) and genomic (ORF1b) RNA transcripts", "setting": "HCoV-229E [19]", "value": "dose-dependent inhibition"}, {"measurement": "CC50", "setting": "MRC5 cells", "value": "> 50000", "unit": "nM"}, {"measurement": "CC50", "setting": "[20]", "value": "> 50000", "unit": "nM"}]}
